The test concerns the target BRAF^V600E protein (Homo sapiens, UniProt P15056, V600E). Kind of test: HiBiT cellular BRAF V600E degradation assay. In kind it is cell-based. The conditions noted are these: 24 h incubation; for DC50: A375.10 cells (HiBiT tag knocked in at N-terminal of BRAF V600E), concentration at which 50% of total cellular BRAF V600E is degraded; for Emax: A375.10 cells, Emax = amount of residual protein remaining in the cell after compound treatment, read-out: HiBit 24 h Emax. For orientation: With HiBiT, luminescence reflects the tagged protein that the partner subunit can reach.

Each structure is given as a SMILES string.

For orientation: DC50 means the concentration at which degradation of the target reaches its halfway point. Usually Emax stands for the maximal effect, on the per cent scale that the assay sets.

Sequence of BRAF^V600E protein (P15056 whole entry V600E): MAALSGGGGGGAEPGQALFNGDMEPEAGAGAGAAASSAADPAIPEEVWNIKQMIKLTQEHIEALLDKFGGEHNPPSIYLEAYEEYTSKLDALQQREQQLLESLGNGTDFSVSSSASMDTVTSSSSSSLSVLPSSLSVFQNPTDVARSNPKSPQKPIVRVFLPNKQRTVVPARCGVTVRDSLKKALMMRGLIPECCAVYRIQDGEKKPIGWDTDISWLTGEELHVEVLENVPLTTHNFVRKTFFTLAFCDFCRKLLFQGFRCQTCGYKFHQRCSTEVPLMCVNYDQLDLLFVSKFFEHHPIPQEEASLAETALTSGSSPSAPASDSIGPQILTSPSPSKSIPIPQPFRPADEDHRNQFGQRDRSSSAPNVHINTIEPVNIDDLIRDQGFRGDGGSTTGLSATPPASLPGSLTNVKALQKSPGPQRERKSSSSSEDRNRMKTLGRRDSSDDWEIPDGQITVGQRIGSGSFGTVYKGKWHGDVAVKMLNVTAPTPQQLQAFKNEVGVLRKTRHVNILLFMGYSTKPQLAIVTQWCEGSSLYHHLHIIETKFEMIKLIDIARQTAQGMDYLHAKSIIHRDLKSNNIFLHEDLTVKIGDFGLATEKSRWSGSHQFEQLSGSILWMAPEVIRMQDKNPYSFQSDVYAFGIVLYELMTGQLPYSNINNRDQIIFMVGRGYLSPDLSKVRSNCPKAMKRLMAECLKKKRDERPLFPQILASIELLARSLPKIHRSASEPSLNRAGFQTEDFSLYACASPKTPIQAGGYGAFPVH

As to `CCN(C)S(=O)(=O)Nc1ccc(F)c(C(=O)c2c[nH]c3ncc(-c4ccc(N5CCN(C(=O)CN6CCC(c7ccc(NC89CC(C8)C(=O)NC9=O)cc7)CC6)CC5)nc4)cc23)c1F` [Example A47, 5-[6-[4-[2-[4-[4-[(2,4-Dioxo-3-azabicyclo[3.1.1]heptan-1-yl)amino]phenyl]piperidin-1-yl]acetyl]piperazin-1-yl]pyridin-3-yl]-3-[3-[[ethyl(methyl)sulfamoyl]amino]-2,6-difluorobenzoyl]-1H-pyrrolo[2,3-b]pyridine], it took 3.86 nM to reach half-maximal degradation (DC50) and the Emax worked out at 10.7%.

For `CCN(C)S(=O)(=O)Nc1ccc(F)c(C(=O)c2c[nH]c3ncc(-c4ccc(N5CCN(C(=O)CC6(O)CCN(c7ccc(N[C@@H]8CCC(=O)NC8=O)cc7F)CC6)CC5)cc4)cc23)c1F` [Example 178, 5-[4-[4-[2-[1-[4-[[(3R)-2,6-dioxo-3-piperidyl]amino]-2-fluoro-phenyl]-4-hydroxy-4-piperidyl]acetyl]piperazin-1-yl]phenyl]-3-[3-[[ethyl(methyl)sulfamoyl]amino]-2,6-difluoro-benzoyl]-1H-pyrrolo[2,3-b]pyridine], the DC50 stood at 2.71 nM and the Emax amounted to 9.65%.

With `CCN(C)S(=O)(=O)Nc1ccc(F)c(C(=O)c2c[nH]c3ncc(-c4cc(F)c(N5CCN(C(=O)CC6(O)CCN(c7ccc(NC8CCC(=O)NC8=O)cc7F)CC6)CC5)c(F)c4)cc23)c1F` (stereo not shown) [Example 195, 5-[4-[4-[2-[1-[4-[(2,6-dioxo-3-piperidyl)amino]-2-fluoro-phenyl]-4-hydroxy-4-piperidyl]acetyl]piperazin-1-yl]-3,5-difluoro-phenyl]-3-[3-[[ethyl(methyl)sulfamoyl]amino]-2,6-difluoro-benzoyl]-1H-pyrrolo[2,3-b]pyridine], the DC50 stood at 6.23 nM and the Emax is 7.6%.

In the case of `CCN(C)S(=O)(=O)Nc1ccc(F)c(C(=O)c2c[nH]c3ncc(-c4ccc(N5CCC(NC(=O)CN6CCC(c7ccc(NC8CCC(=O)NC8=O)cn7)CC6)CC5)nc4)cc23)c1F` (stereo not shown) [Example A57, 2-[4-[5-[(2,6-dioxopiperidin-3-yl)amino]pyridin-2-yl]piperidin-1-yl]-N-[1-[5-[3-[3-[[ethyl(methyl)sulfamoyl]amino]-2,6-difluorobenzoyl]-1H-pyrrolo[2,3-b]pyridin-5-yl]pyridin-2-yl]piperidin-4-yl]acetamide;formic acid], half-maximal degradation (DC50) was put at 33 nM and the Emax amounted to 13%.

Turning to `CCN(C)S(=O)(=O)Nc1ccc(F)c(C(=O)c2c[nH]c3ncc(-c4cnc(N5CCN(C(=O)CC6(O)CCN(c7ccc(NC8CCC(=O)NC8=O)cc7C(F)F)CC6)CC5)nc4)cc23)c1F` (stereo not shown) [Example 204, 5-[2-[4-[2-[1-[2-(difluoromethyl)-4-[(2,6-dioxo-3-piperidyl)amino]phenyl]-4-hydroxy-4-piperidyl]acetyl]piperazin-1-yl]pyrimidin-5-yl]-3-[3-[[ethyl(methyl)sulfamoyl]amino]-2,6-difluoro-benzoyl]-1H-pyrrolo[2,3-b]pyridine], the DC50 amounted to 3.8 nM and the Emax came to 8.6%.

In the case of `CCN(C)S(=O)(=O)Nc1ccc(F)c(C(=O)c2c[nH]c3ncc(-c4cnc(N5CCN(C(=O)CC6(O)CCN(c7ccc(N[C@@H]8CCC(=O)NC8=O)cc7F)CC6)CC5)nc4)cc23)c1F` [Example 174, 5-[2-[4-[2-[1-[4-[[(3R)-2,6-dioxo-3-piperidyl]amino]-2-fluoro-phenyl]-4-hydroxy-4-piperidyl]acetyl]piperazin-1-yl]pyrimidin-5-yl]-3-[3-[[ethyl(methyl)sulfamoyl]amino]-2,6-difluoro-benzoyl]-1H-pyrrolo[2,3-b]pyridine], it took 2.39 nM to reach half-maximal degradation (DC50) and the Emax came to 9.44%.

Consider `CCN(C)S(=O)(=O)Nc1ccc(F)c(C(=O)c2c[nH]c3ncc(-c4ccc(N5CCN(C(=O)CC6(O)CCN(c7cc(F)c(N8CCC(=O)NC8=O)cc7Cl)CC6)CC5)nc4)cc23)c1F` [Example 215, 5-[6-[4-[2-[1-[2-chloro-4-(2,4-dioxohexahydropyrimidin-1-yl)-5-fluoro-phenyl]-4-hydroxy-4-piperidyl]acetyl]piperazin-1-yl]-3-pyridyl]-3-[3-[[ethyl(methyl)sulfamoyl]amino]-2,6-difluoro-benzoyl]-1H-pyrrolo[2,3-b]pyridine], for which it took 2.71 nM to reach half-maximal degradation (DC50) and the Emax was found to be 7.87%.

As to `CCN(C)S(=O)(=O)Nc1ccc(F)c(C(=O)c2c[nH]c3ncc(-c4ccc(N5CCN(C(=O)CC6(O)CCN(c7ccc(C8CCC(=O)NC8=O)cc7F)CC6)CC5)nc4)cc23)c1F` (stereo not shown) [Example 160, 5-[6-[4-[2-[1-[4-(2,6-dioxo-3-piperidyl)-2-fluoro-phenyl]-4-hydroxy-4-piperidyl]acetyl]piperazin-1-yl]-3-pyridyl]-3-[3-[[ethyl(methyl)sulfamoyl]amino]-2,6-difluoro-benzoyl]-1H-pyrrolo[2,3-b]pyridine], the DC50 was found to be 3.12 nM and the Emax turned out to be 6.7%.

On to `CCN(C)S(=O)(=O)Nc1ccc(F)c(C(=O)c2c[nH]c3ncc(-c4ccc(N5CCN(C(=O)CC6(O)CCN(c7ccc(NC8CCC(=O)NC8=O)cc7F)CC6)CC5)c(F)c4)cc23)c1F` (stereo not shown) [Example 198, 5-[4-[4-[2-[1-[4-[(2,6-dioxo-3-piperidyl)amino]-2-fluoro-phenyl]-4-hydroxy-4-piperidyl]acetyl]piperazin-1-yl]-3-fluoro-phenyl]-3-[3-[[ethyl(methyl)sulfamoyl]amino]-2,6-difluoro-benzoyl]-1H-pyrrolo[2,3-b]pyridine], for which it took 2.42 nM to reach half-maximal degradation (DC50) and the Emax amounted to 6.19%.

As to `CCN(C)S(=O)(=O)Nc1ccc(F)c(C(=O)c2c[nH]c3ncc(-c4cnc(N5CCC(N(C)C(=O)CN6CCC(c7ccc(NC8CCC(=O)NC8=O)cn7)CC6)CC5)nc4)cc23)c1F` (stereo not shown) [Example A92, 2-[4-[5-[(2,6-Dioxopiperidin-3-yl)amino]pyridin-2-yl]piperidin-1-yl]-N-[1-[5-[3-[3-[[ethyl(methyl)sulfamoyl]amino]-2,6-difluorobenzoyl]-1H-pyrrolo[2,3-b]pyridin-5-yl]pyrimidin-2-yl]piperidin-4-yl]-N-methylacetamide; formic acid], it took 8 nM to reach half-maximal degradation (DC50) and the Emax was determined as 7%.

On to `CCN(C)S(=O)(=O)Nc1ccc(F)c(C(=O)c2c[nH]c3ncc(-c4cnc(N5CCC(CC(=O)N6CCC(c7ccc(N8CCC(=O)NC8=O)cc7)CC6)CC5)nc4)cc23)c1F` [Example A113, 5-[2-[4-[2-[4-[4-(2,4-Dioxo-1,3-diazinan-1-yl)phenyl]piperidin-1-yl]-2-oxoethyl]piperidin-1-yl]pyrimidin-5-yl]-3-[3-[[ethyl(methyl)sulfamoyl]amino]-2,6-difluorobenzoyl]-1H-pyrrolo[2,3-b]pyridine], for which the DC50 came out at 53 nM and the Emax is 33%.

For the compound `CCN(C)S(=O)(=O)Nc1ccc(F)c(C(=O)c2c[nH]c3ncc(-c4ccc(N5CCN(C(=O)CC6(O)CCN(c7ccc(NC8CCC(=O)NC8=O)cc7F)CC6)CC5)cc4)cc23)c1F` (stereo not shown) [Example 89, 5-[4-[4-[2-[1-[4-[(2,6-dioxo-3-piperidyl)amino]-2-fluoro-phenyl]-4-hydroxy-4-piperidyl]acetyl]piperazin-1-yl]phenyl]-3-[3-[[ethyl(methyl)sulfamoyl]amino]-2,6-difluoro-benzoyl]-1H-pyrrolo[2,3-b]pyridine], the DC50 was 1.4 nM and the Emax amounted to 8.6%.

For `CCN(C)S(=O)(=O)Nc1ccc(F)c(C(=O)c2c[nH]c3ncc(-c4cnc(N5CCN(C(=O)CC6(O)CCN(c7cc(F)c(N8CCC(=O)NC8=O)cc7Cl)CC6)CC5)nc4)cc23)c1F` [Example 216, 5-[2-[4-[2-[1-[2-chloro-4-(2,4-dioxohexahydropyrimidin-1-yl)-5-fluoro-phenyl]-4-hydroxy-4-piperidyl]acetyl]piperazin-1-yl]pyrimidin-5-yl]-3-[3-[[ethyl(methyl)sulfamoyl]amino]-2,6-difluoro-benzoyl]-1H-pyrrolo[2,3-b]pyridine], the half-maximal degradation concentration (DC50) worked out at 1.33 nM and the Emax was found to be 7.4%.

As to `O=C1CCC(Oc2ccc(C3CCN(CC(=O)N4CC5(C4)CN(c4ncc(-c6cnc7[nH]cc(C(=O)c8c(F)ccc(NS(=O)(=O)N9CCCC9)c8F)c7c6)cn4)C5)CC3)cc2)C(=O)N1` (stereo not shown) [Example A119, N-[3-[5-[2-[2-[2-[4-[4-(2,6-Dioxopiperidin-3-yl)oxyphenyl]piperidin-1-yl]acetyl]-2,6-diazaspiro[3.3]heptan-6-yl]pyrimidin-5-yl]-1H-pyrrolo[2,3-b]pyridine-3-carbonyl]-2,4-difluorophenyl]pyrrolidine-1-sulfonamide], it took 47 nM to reach half-maximal degradation (DC50) and the Emax was determined as 12%.

Regarding `CCN(C)S(=O)(=O)Nc1ccc(F)c(C(=O)c2c[nH]c3ncc(-c4ccc(N5CCN(C(=O)CCN6CCC(c7ccc(OC8CCC(=O)NC8=O)cc7)CC6)CC5)nc4)cc23)c1F` (stereo not shown) [Example A35, 5-[6-[4-[3-[4-[4-(2,6-Dioxopiperidin-3-yl)oxyphenyl]piperidin-1-yl]propanoyl]piperazin-1-yl]pyridin-3-yl]-3-[3-[[ethyl(methyl)sulfamoyl]amino]-2,6-difluorobenzoyl]-1H-pyrrolo[2,3-b]pyridine], the DC50 is 54 nM and the Emax was found to be 21%.

For `CCN(C)S(=O)(=O)Nc1ccc(F)c(C(=O)c2c[nH]c3ncc(-c4ccc(N5CCN(C(=O)CN6CCC(n7cc(NC8CCC(=O)NC8=O)cn7)CC6)CC5)cc4)cc23)c1F` (stereo not shown) [Example A80, 5-[4-[4-[2-[4-[4-[(2,6-Dioxopiperidin-3-yl)amino]pyrazol-1-yl]piperidin-1-yl]acetyl]piperazin-1-yl]phenyl]-3-[3-[[ethyl(methyl)sulfamoyl]amino]-2,6-difluorobenzoyl]-1H-pyrrolo[2,3-b]pyridine], the DC50 was 27.5 nM and the Emax stood at 21.6%.

As to `CCN(C)S(=O)(=O)Nc1cccc(C(=O)c2c[nH]c3ncc(-c4ccc(N5CCN(C(=O)CN6CCC(c7ccc(NC8CCC(=O)NC8=O)cc7)CC6)CC5)nc4)cc23)c1F` (stereo not shown) [Example 107, 5-[6-[4-[2-[4-[4-[(2,6-dioxo-3-piperidyl)amino]phenyl]-1-piperidyl]acetyl]piperazin-1-yl]-3-pyridyl]-3-[3-[[ethyl(methyl)sulfamoyl]amino]-2-fluoro-benzoyl]-1H-pyrrolo[2,3-b]pyridine], the DC50 is 3.08 nM and the Emax was 7.97%.

Values taken from US12559492B2, “BRAF degraders” (C4 Therapeutics, Inc., priority 2020, dated 2026).
